Laboratory results from patent US20230017045A1, “PYRIDINE AND PYRIMIDINE CARBOXYLATE HERBICIDES AND METHODS OF USE THEREOF” (Dow AgroSciences LLC, priority 2017, published 2023).

These compounds were tested on test plant species (assay: Post-emergent herbicidal activity test (greenhouse, foliar spray, visual growth reduction)). Conditions: post-emergence, 336 h, ALOMY: blackgrass (Alopecurus myosuroides), 140 g ai/ha, 14 days after application, read-out: Visual Growth Reduction (%) 14 Days After Application, ALOMY.
Type: in vivo
How it was run: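 Scoring used a 0 to 100 percent visual scale of growth reduction against solvent-treated controls, read 14 d after spraying. Applications went onto plants at first or second true leaf stage, 187 L/ha, with crop oil concentrate and X-77 surfactant in the carrier. Post-treatment watering was by subirrigation to avoid wash-off.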

Structure (SMILES)	pest or weed control at 140 g/ha [%]
CCOC(=O)c1nc(-c2ccc(Cl)c(OC)c2F)cc(OCC)c1N [F77, ethyl 3-amino-6-(4-chloro-2-fluoro-3-methoxyphenyl)-4-ethoxypicolinate]	0 to 29
C#Cc1cc(C(F)(F)F)ccc1-c1ccc(Cl)c(C(=O)OC)n1 [F16, methyl 3-chloro-6-(2-ethynyl-4-(trifluoromethyl)phenyl) picolinate]	0 to 29

Same assay, conditions: post-emergence, 336 h, AMARE: redroot pigweed (Amaranthus retroflexus), 140 g ai/ha, 14 days after application, read-out: Visual Growth Reduction (%) 14 Days After Application, AMARE

Structure (SMILES)	pest or weed control at 140 g/ha [%]
C#Cc1cc(C(F)(F)F)ccc1-c1ccc(Cl)c(C(=O)OC)n1 [F16, methyl 3-chloro-6-(2-ethynyl-4-(trifluoromethyl)phenyl) picolinate]	30 to 44

Same assay, conditions: post-emergence, 336 h, AVEFA: wild oat (Avena fatua), 140 g ai/ha, 14 days after application, read-out: Visual Growth Reduction (%) 14 Days After Application, AVEFA

Structure (SMILES)	pest or weed control at 140 g/ha [%]
CCOC(=O)c1nc(-c2ccc(Cl)c(OC)c2F)cc(OCC)c1N [F77, ethyl 3-amino-6-(4-chloro-2-fluoro-3-methoxyphenyl)-4-ethoxypicolinate]	0 to 29
C#Cc1cc(C(F)(F)F)ccc1-c1ccc(Cl)c(C(=O)OC)n1 [F16, methyl 3-chloro-6-(2-ethynyl-4-(trifluoromethyl)phenyl) picolinate]	0 to 29

Same assay, conditions: post-emergence, 336 h, CHEAL: lambsquarters (Chenopodium album), 140 g ai/ha, 14 days after application, read-out: Visual Growth Reduction (%) 14 Days After Application, CHEAL

Structure (SMILES)	pest or weed control at 140 g/ha [%]
CCOC(=O)c1nc(-c2ccc(Cl)c(OC)c2F)cc(OCC)c1N [F77, ethyl 3-amino-6-(4-chloro-2-fluoro-3-methoxyphenyl)-4-ethoxypicolinate]	45 to 59
C#Cc1cc(C(F)(F)F)ccc1-c1ccc(Cl)c(C(=O)OC)n1 [F16, methyl 3-chloro-6-(2-ethynyl-4-(trifluoromethyl)phenyl) picolinate]	0 to 29

Same assay, conditions: post-emergence, 336 h, CIRAR: canada thistle (Cirsium arvense), 140 g ai/ha, 14 days after application, read-out: Visual Growth Reduction (%) 14 Days After Application, CIRAR

Structure (SMILES)	pest or weed control at 140 g/ha [%]
CCOC(=O)c1nc(-c2ccc(Cl)c(OC)c2F)cc(OCC)c1N [F77, ethyl 3-amino-6-(4-chloro-2-fluoro-3-methoxyphenyl)-4-ethoxypicolinate]	0 to 29
C#Cc1cc(C(F)(F)F)ccc1-c1ccc(Cl)c(C(=O)OC)n1 [F16, methyl 3-chloro-6-(2-ethynyl-4-(trifluoromethyl)phenyl) picolinate]	30 to 44

Same assay, conditions: post-emergence, 336 h, CYPES: yellow nutsedge (Cyperus esculentus), 140 g ai/ha, 14 days after application, read-out: Visual Growth Reduction (%) 14 Days After Application, CYPES

Structure (SMILES)	pest or weed control at 140 g/ha [%]
CCOC(=O)c1nc(-c2ccc(Cl)c(OC)c2F)cc(OCC)c1N [F77, ethyl 3-amino-6-(4-chloro-2-fluoro-3-methoxyphenyl)-4-ethoxypicolinate]	0 to 29
C#Cc1cc(C(F)(F)F)ccc1-c1ccc(Cl)c(C(=O)OC)n1 [F16, methyl 3-chloro-6-(2-ethynyl-4-(trifluoromethyl)phenyl) picolinate]	0 to 29

Same assay, conditions: post-emergence, 336 h, DIGSA: crabgrass (Digitaria sanguinalis), 140 g ai/ha, 14 days after application, read-out: Visual Growth Reduction (%) 14 Days After Application, DIGSA

Structure (SMILES)	pest or weed control at 140 g/ha [%]
CCOC(=O)c1nc(-c2ccc(Cl)c(OC)c2F)cc(OCC)c1N [F77, ethyl 3-amino-6-(4-chloro-2-fluoro-3-methoxyphenyl)-4-ethoxypicolinate]	0 to 29
C#Cc1cc(C(F)(F)F)ccc1-c1ccc(Cl)c(C(=O)OC)n1 [F16, methyl 3-chloro-6-(2-ethynyl-4-(trifluoromethyl)phenyl) picolinate]	0 to 29

Same assay, conditions: post-emergence, 336 h, ECHCG: barnyardgrass (Echinochloa crus-galli), 140 g ai/ha, 14 days after application, read-out: Visual Growth Reduction (%) 14 Days After Application, ECHCG

Structure (SMILES)	pest or weed control at 140 g/ha [%]
CCOC(=O)c1nc(-c2ccc(Cl)c(OC)c2F)cc(OCC)c1N [F77, ethyl 3-amino-6-(4-chloro-2-fluoro-3-methoxyphenyl)-4-ethoxypicolinate]	0 to 29

Same assay, conditions: post-emergence, 336 h, IPOHE: ivy-leaf morning glory (Ipomoea hederacea), 140 g ai/ha, 14 days after application, read-out: Visual Growth Reduction (%) 14 Days After Application, IPOHE

Structure (SMILES)	pest or weed control at 140 g/ha [%]
CCOC(=O)c1nc(-c2ccc(Cl)c(OC)c2F)cc(OCC)c1N [F77, ethyl 3-amino-6-(4-chloro-2-fluoro-3-methoxyphenyl)-4-ethoxypicolinate]	0 to 29

Same assay, conditions: post-emergence, 336 h, ORYSA: rice (Oryza sativa), 140 g ai/ha, 14 days after application, read-out: Visual Growth Reduction (%) 14 Days After Application, ORYSA

Structure (SMILES)	pest or weed control at 140 g/ha [%]
CCOC(=O)c1nc(-c2ccc(Cl)c(OC)c2F)cc(OCC)c1N [F77, ethyl 3-amino-6-(4-chloro-2-fluoro-3-methoxyphenyl)-4-ethoxypicolinate]	0 to 29

Same assay, conditions: post-emergence, 336 h, SETFA: giant foxtail (Setaria faberi), 140 g ai/ha, 14 days after application, read-out: Visual Growth Reduction (%) 14 Days After Application, SETFA

Structure (SMILES)	pest or weed control at 140 g/ha [%]
CCOC(=O)c1nc(-c2ccc(Cl)c(OC)c2F)cc(OCC)c1N [F77, ethyl 3-amino-6-(4-chloro-2-fluoro-3-methoxyphenyl)-4-ethoxypicolinate]	0 to 29

Same assay, conditions: post-emergence, 336 h, SORVU: grain sorghum (Sorghum vulgare), 140 g ai/ha, 14 days after application, read-out: Visual Growth Reduction (%) 14 Days After Application, SORVU

Structure (SMILES)	pest or weed control at 140 g/ha [%]
CCOC(=O)c1nc(-c2ccc(Cl)c(OC)c2F)cc(OCC)c1N [F77, ethyl 3-amino-6-(4-chloro-2-fluoro-3-methoxyphenyl)-4-ethoxypicolinate]	0 to 29

Same assay, conditions: post-emergence, 336 h, STEME: common chickweed (Stellaria media), 140 g ai/ha, 14 days after application, read-out: Visual Growth Reduction (%) 14 Days After Application, STEME

Structure (SMILES)	pest or weed control at 140 g/ha [%]
CCOC(=O)c1nc(-c2ccc(Cl)c(OC)c2F)cc(OCC)c1N [F77, ethyl 3-amino-6-(4-chloro-2-fluoro-3-methoxyphenyl)-4-ethoxypicolinate]	0 to 29

Same assay, conditions: post-emergence, 336 h, TRZAS: wheat, spring (Triticum aestivum), 140 g ai/ha, 14 days after application, read-out: Visual Growth Reduction (%) 14 Days After Application, TRZAS

Structure (SMILES)	pest or weed control at 140 g/ha [%]
CCOC(=O)c1nc(-c2ccc(Cl)c(OC)c2F)cc(OCC)c1N [F77, ethyl 3-amino-6-(4-chloro-2-fluoro-3-methoxyphenyl)-4-ethoxypicolinate]	0 to 29

Same assay, conditions: post-emergence, 336 h, barnyardgrass (Echinochloa crus-galli), 14 Days After Application, 140 g ai/ha, read-out: Visual Growth Reduction (%) ECHCG

Structure (SMILES)	pest or weed control at 140 g/ha [%]
C#Cc1cc(C(F)(F)F)ccc1-c1ccc(Cl)c(C(=O)OC)n1 [F16, methyl 3-chloro-6-(2-ethynyl-4-(trifluoromethyl)phenyl) picolinate]	0 to 29

Same assay, conditions: post-emergence, 336 h, common chickweed (Stellaria media), 14 Days After Application, 140 g ai/ha, read-out: Visual Growth Reduction (%) STEME

Structure (SMILES)	pest or weed control at 140 g/ha [%]
C#Cc1cc(C(F)(F)F)ccc1-c1ccc(Cl)c(C(=O)OC)n1 [F16, methyl 3-chloro-6-(2-ethynyl-4-(trifluoromethyl)phenyl) picolinate]	0 to 29

Same assay, conditions: post-emergence, 336 h, giant foxtail (Setaria faberi), 14 Days After Application, 140 g ai/ha, read-out: Visual Growth Reduction (%) SETFA

Structure (SMILES)	pest or weed control at 140 g/ha [%]
C#Cc1cc(C(F)(F)F)ccc1-c1ccc(Cl)c(C(=O)OC)n1 [F16, methyl 3-chloro-6-(2-ethynyl-4-(trifluoromethyl)phenyl) picolinate]	0 to 29

Same assay, conditions: post-emergence, 336 h, ivy-leaf morning glory (Ipomoea hederacea), 14 Days After Application, 140 g ai/ha, read-out: Visual Growth Reduction (%) IPOHE

Structure (SMILES)	pest or weed control at 140 g/ha [%]
C#Cc1cc(C(F)(F)F)ccc1-c1ccc(Cl)c(C(=O)OC)n1 [F16, methyl 3-chloro-6-(2-ethynyl-4-(trifluoromethyl)phenyl) picolinate]	95 to 100

Same assay, conditions: post-emergence, 336 h, johnsongrass (Sorghum vulgare), 14 Days After Application, 140 g ai/ha, read-out: Visual Growth Reduction (%) SORVU

Structure (SMILES)	pest or weed control at 140 g/ha [%]
C#Cc1cc(C(F)(F)F)ccc1-c1ccc(Cl)c(C(=O)OC)n1 [F16, methyl 3-chloro-6-(2-ethynyl-4-(trifluoromethyl)phenyl) picolinate]	75 to 84

Same assay, conditions: post-emergence, 336 h, kochia (Bassia scoparia), 14 Days After Application, 140 g ai/ha, read-out: Visual Growth Reduction (%) KCHSC

Structure (SMILES)	pest or weed control at 140 g/ha [%]
C#Cc1cc(C(F)(F)F)ccc1-c1ccc(Cl)c(C(=O)OC)n1 [F16, methyl 3-chloro-6-(2-ethynyl-4-(trifluoromethyl)phenyl) picolinate]	0 to 29

Same assay, conditions: post-emergence, 336 h, rice (Oryza sativa), 14 Days After Application, 140 g ai/ha, read-out: Visual Growth Reduction (%) ORYSA

Structure (SMILES)	pest or weed control at 140 g/ha [%]
C#Cc1cc(C(F)(F)F)ccc1-c1ccc(Cl)c(C(=O)OC)n1 [F16, methyl 3-chloro-6-(2-ethynyl-4-(trifluoromethyl)phenyl) picolinate]	0 to 29

Same assay, conditions: post-emergence, 336 h, wheat, spring (Triticum aestivum), 14 Days After Application, 140 g ai/ha, read-out: Visual Growth Reduction (%) TRZAS

Structure (SMILES)	pest or weed control at 140 g/ha [%]
C#Cc1cc(C(F)(F)F)ccc1-c1ccc(Cl)c(C(=O)OC)n1 [F16, methyl 3-chloro-6-(2-ethynyl-4-(trifluoromethyl)phenyl) picolinate]	0 to 29
